Legend:
MV4-11 cells = assay: Growth inhibition of MV4-11 cells (CellTiterGlo); assay type: cell-based; conditions: Homo sapiens, 72 hours, uncertainty +20%
Description: FLT3 specific growth inhibition was measured in the leukemic cell line MV4-11 (ATCC Number: CRL-9591). […] MV4-11 cells cannot grow and survive without active FLT31TD.
To measure proliferation inhibition by test compounds the luciferase based CellTiterGlo reagent (Promega) was used. Cells are plated at 10,000 cells per well in 100ul of in RPMI media containing penn/strep, 10% FBS and lng/ml GM-CSF or 1 ng/ml IL-3 for MV4-11 and Baf3 cells respectively.
Compound dilutions or 0.1% DMSO (vehicle control) are added to cells and the cells are allowed to grow for 72 hours at standard cell growth conditions (37° C., 5% CO2). Total cell growth is quantified as the difference in luminescent counts (relative light units, RLU) of cell number at Day 0 compared to total cell number at Day 3 (72 hours of growth and/or compound treatment). One hundred percent inhibition of growth is defined as an RLU equivalent to the Day 0 reading. Zero percent inhibition is defined as the RLU signal for the DMSO vehicle control at Day 3 of growth. All data points are an average of triplicate samples. […] Inhibition and IC50 data analysis was done with GraphPad Prism using a non-linear regression fit with a multiparamater, sigmoidal dose-response (variable slope) equation.
MV-411 cells expressed the FLT3 internal tandem duplication mutation, and thus were entirely dependent upon FLT3 activity for growth. […] In contrast, the Baf3 cell proliferations is driven by the cytokine IL-3 and these cells are used as a non-specific toxicity control for test compounds.

FLT3 571-993 = target: T1, FLT3 571-993 (Homo sapiens, UniProt P36888); assay: FLT3 Fluorescence Polarization Kinase Assay; assay type: biochemical; conditions: 10 nM FLT3 571-993, 150 uM ATP, 30 minutes; uncertainty +10%
T1 construct: 10 nM FLT3 571-993, 20 ug/mL poly Glu4Tyr
T1 sequence (P36888 571-993): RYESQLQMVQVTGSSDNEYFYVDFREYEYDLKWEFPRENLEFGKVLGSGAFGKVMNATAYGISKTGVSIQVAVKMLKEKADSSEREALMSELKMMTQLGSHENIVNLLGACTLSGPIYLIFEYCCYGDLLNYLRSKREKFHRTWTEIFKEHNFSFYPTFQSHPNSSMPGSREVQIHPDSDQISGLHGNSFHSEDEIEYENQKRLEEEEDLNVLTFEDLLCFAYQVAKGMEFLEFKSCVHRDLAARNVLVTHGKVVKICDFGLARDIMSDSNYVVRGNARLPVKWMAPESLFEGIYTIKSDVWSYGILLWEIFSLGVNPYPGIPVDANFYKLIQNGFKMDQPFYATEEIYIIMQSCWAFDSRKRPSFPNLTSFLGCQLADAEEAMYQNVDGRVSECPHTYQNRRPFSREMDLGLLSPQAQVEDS
Description: The FLT3 FP assay utilizes the fluorescein-labeled phosphopeptide and the anti-phosphotyrosine antibody included in the Panvera Phospho-Tyrosine Kinase Kit (Green) supplied by Invitrogen. When FLT3 phosphorylates poly Glu4Tyr, the fluorescein-labeled phosphopeptide is displaced from the anti-phosphotyrosine antibody by the phosphorylated poly Glu4Tyr, thus decreasing the FP value. The FLT3 kinase reaction is incubated at room temperature for 30 minutes under the following conditions: 10 nM FLT3 571-993, 20 ug/mL poly Glu4Tyr, 150 uM ATP, 5mM MgCl2, 1% compound in DMSO. The kinase reaction is stopped with the addition of EDTA. The fluorescein-labeled phosphopeptide and the anti-phosphotyrosine antibody are added and incubated for 30 minutes at room temperature.
All data points are an average of triplicate samples. Inhibition and IC50 data analysis was done with GraphPad Prism using a non-linear regression fit with a multiparamater, sigmoidal dose-response (variable slope) equation.

Row | Compound | IC50 (MV4-11 cells) [nM] | IC50 (FLT3 571-993) [nM]
1 | CC(C)Oc1ccc(NC(=O)OC2CCN(c3ncnc4ccsc34)C2)cc1 (stereo not drawn) [Compound 6, (4-Isopropoxy-phenyl)-carbamic acid 1-thieno[3,2-d]pyrimidin-4-yl-pyrrolidin-3-yl ester] | 6500 | 208
2 | CC(C)c1ccc(NC(=O)OC2CCN(c3ncnc4ccsc34)CC2)cc1 [Compound 7, (4-Isopropyl-phenyl)-carbamic acid 1-thieno[3,2-d]pyrimidin-4-yl-piperidin-4-yl ester] | 4300 | 140
3 | O=C(Nc1ccc(OC2CCC2)nc1)NC1CCN(c2ncnc3ccsc23)CC1 [Compound 20, 1-(6-Cyclobutoxy-pyridin-3-yl)-3-(1-thieno [3,2-d]pyrimidin-4-yl-piperidin-4-yl)-urea] | 1500 | –
4 | CC(C)c1ccc(NC(=O)OC2CCN(c3ncnc4sccc34)C2)cc1 (stereo not drawn) [Compound 3, (4-Isopropyl-phenyl)-carbamic acid 1-thieno[2,3-d]pyrimidin-4-yl-pyrrolidin-3-yl ester] | 2400 | 227
5 | CC(C)Oc1ccc(NC(=O)NC2CCN(c3ncnc4sccc34)C2)cc1 (stereo not drawn) [Compound 10, 1-(4-Isopropoxy-phenyl)-3-(1-thieno[2,3-d]pyrimidin-4-yl-pyrrolidin-3-yl)-urea] | 3600 | 365
6 | CC(C)Oc1ccc(NC(=O)OC2CCN(c3ncnc4sccc34)CC2)cc1 [Compound 2, (4-Isopropoxy-phenyl)-carbamic acid 1-thieno[2,3-d]pyrimidin-4-yl-piperidin-4-yl ester] | > 10000 | 2090
7 | CC(C)Oc1ccc(NC(=O)OC2CCN(c3ncnc4sccc34)C2)cc1 (stereo not drawn) [Compound 4, (4-Isopropoxy-phenyl)-carbamic acid 1-thieno[2,3-d]pyrimidin-4-yl-pyrrolidin-3-yl ester] | > 10000 | 761
8 | CC(C)Oc1ccc(NC(=O)OC2CCN(c3ncnc4ccsc34)CC2)cc1 [Compound 8, (4-Isopropoxy-phenyl)-carbamic acid 1-thieno[3,2-d]pyrimidin-4-yl-piperidin-4-yl ester] | 3600 | 3030
9 | CC(C)c1ccc(NC(=O)OC2CCN(c3ncnc4sccc34)CC2)cc1 [Compound 1, (4-Isopropyl-phenyl)-carbamic acid 1-thieno[2,3-d]pyrimidin-4-yl-piperidin-4-yl ester] | 7200 | 102

Next, values leading:

Row | IC50 (MV4-11 cells) [nM] | IC50 (FLT3 571-993) [nM] | Compound
10 | 1900 | – | O=C(Nc1ccc(Br)cc1)NC1CCN(c2ncnc3ccsc23)C1 (stereo not drawn) [Compound 17, 1-(4-Bromo-phenyl)-3-(1-thieno [3,2-d]pyrimidin-4-yl-pyrrolidin-3-yl)-urea]
11 | 2100 | – | O=C(Nc1ccc(N2CCOCC2)cc1)OC1CCN(c2ncnc3ccsc23)C1 (stereo not drawn) [Compound 28, (4-Morpholin-4-yl-phenyl)-carbamic acid 1-thieno[3,2-d]pyrimidin-4-yl-pyrrolidin-3-yl ester]
12 | > 5000 | – | O=C(Nc1ccc(N2CCOCC2)cc1)NC1CCN(c2ncnc3ccsc23)C1 (stereo not drawn) [Compound 14, 1-(4-Morpholin-4-yl-phenyl)-3-(1-thieno [3,2-d]pyrimidin-4-yl-pyrrolidin-3-yl)-urea]
13 | 3800 | – | O=C(Nc1ccc(Oc2ccccc2)cc1)NC1CCN(c2ncnc3ccsc23)CC1 [Compound 22, 1-(4-Phenoxy-phenyl)-3-(1-thieno [3,2-d]pyrimidin-4-yl-piperidin-4-yl)-urea]
14 | > 5000 | – | O=C(Nc1ccc(N2CCOCC2)cc1)NC1CCN(c2ncnc3ccsc23)CC1 [Compound 24, 1-(4-Morpholin-4-yl-phenyl)-3-(1-thieno[3,2-d]pyrimidin-4-yl-piperidin-4-yl)-urea]
15 | 1400 | – | O=C(Nc1ccc(C2CCCCC2)cc1)NC1CCN(c2ncnc3ccsc23)CC1 [Compound 21, 1-(4-Cyclohexyl-phenyl)-3-(1-thieno [3,2-d]pyrimidin-4-yl-piperidin-4-yl)-urea]
16 | 3900 | – | O=C(Nc1ccc(N2CCCC2)cc1)NC1CCN(c2ncnc3ccsc23)CC1 [Compound 23, 1-(4-Pyrrolidin-1-yl-phenyl)-3-(1-thieno [3,2-d]pyrimidin-4-yl-piperidin-4-yl)-urea]
17 | 5200 | – | O=C(Nc1ccc(C2CCCCC2)cc1)NC1CCN(c2ncnc3ccsc23)C1 (stereo not drawn) [Compound 16, 1-(4-Cyclohexyl-phenyl)-3-(1-thieno [3,2-d]pyrimidin-4-yl-pyrrolidin-3-yl)-urea]
18 | 2500 | 296 | CC(C)Oc1ccc(NC(=O)NC2CCN(c3ncnc4ccsc34)C2)cc1 (stereo not drawn) [Compound 12, 1-(4-Isopropoxy-phenyl)-3-(1-thieno[3,2-d]pyrimidin-4-yl-pyrrolidin-3-yl)-urea]
